In patent US20250375417A1, “OREXIN RECEPTOR 2 (OX2R) AGONIST FOR USE IN NARCOLEPSY TYPE 1 (NT1)” (TAKEDA PHARMACEUTICAL COMPANY LIMITED, priority 2024, published 2025):

Key:
Assay type in all cases: in vivo, human
participants with NT1 [1] = assay: SF-36 and EQ-5D-5L health-related quality of life, Phase 2 NT1 trial
Text: Health conditions such as mobility, self-care, usual activities, pain/discomfort, and/or anxiety/depression as related to NT1 can be assessed by the EQ-5D-5L assessment. The EQ-5D-5L is a standardized 5-item measure of health status developed by the EuroQol Group to provide a simple, generic measure of health for clinical and economic appraisal that has been used in a wide range of health conditions and treatments (Herdman et al. 2011; Janssen et al. 2013). The EQ-5D-5L consists of a descriptive system and the EuroQol visual analog scale (VAS). The descriptive system comprises 5 dimensions: mobility, self-care, usual activities, pain/discomfort, and anxiety/depression. The EuroQol VAS records the participant's self-rated health on a vertical VAS. This can be used as a quantitative measure of health outcome that reflects the participant's own judgment. The scores on these 5 dimensions can be presented as a health profile or can be converted to a single summary index number (utility) reflecting preferability compared with other health profiles.
Patient health self-assessments can be measured by the SF-36. The SF-36 is a 36-item, participant-reported survey of participant health. […] Similar to each scale, the component scores are also positively scored so that higher scores represent better health-related quality-of-life. […]

participants with NT1 [2] = assay: Maintenance of Wakefulness Test (MWT) sleep onset latency, Phase 2 NT1 trial (Example 1)
Experimental: (§1) In some aspects of the methods described herein, the subject experiences a higher mean sleep latency (also referred to as sleep onset latency or SOL) from the Maintenance of Wakefulness Test (MWT) after a treatment period compared to an untreated subject. The MWT is a validated, objective measure that evaluates a person's ability to remain awake under soporific conditions for a defined period of time. Because there is no biological measure of wakefulness, wakefulness is measured indirectly by the inability or delayed tendency to fall asleep. This tendency to fall asleep is measured via electroencephalography-derived sleep latency in the MWT. One MWT, that includes four 40-minute wake trials, is done on each day specified in the Schedule of Activities of the trial. Sleep latency in each wake trial is recorded. Participants are required to stay awake in between the 4 MWT wake trials.
(§2) During each MWT wake trial, participants are instructed to sit in a bed or reclining chair and remain awake for as long as possible in a dimly lit room. Wake trials are ended after 40 minutes if no sleep occurs. If no sleep has been observed according to these rules, then the latency is defined as 40 minutes.
Randomization was stratified by region. Starting on the morning of Day 1, the study drug was administered at approximately the same time each day for 8 or 12 weeks. If the participant wished to enroll in the long-term extension (LTE) study described in Example 3 but the LTE study had not started at the participant's site when the participant completed the Week 8 visit of the current study, the participant was allowed to continue in the current study for an additional 4 weeks.
The following doses were studied: • Compound A Dose Regimen 1:0.5 mg twice daily approximately 3 hours apart. • Compound A Dose Regimen 2:2 mg twice daily approximately 3 hours apart. • Compound A Dose Regimen 3:2 mg followed by 5 mg approximately 3 hours apart. • Compound A Dose Regimen 4:7 mg once daily (QD). • Other products required for the study: Matching placebo.
Dose regimens included once daily (QD) or twice daily (approximately 3 hours apart) dosing. Study treatment was administered at approximately 8 AM and 11 AM. (Participants assigned to a QD dose regimen received placebo for the second dose. Participants assigned to placebo received placebo for both doses).
Endpoints included change from baseline to Week 8 in mean sleep onset latency on the Maintenance of Wakefulness Test (SOL-MWT; primary endpoint), ESS total score, weekly cataplexy rate (WCR), and occurrence of treatment-emergent adverse events (TEAEs).

participants with NT2 = assay: MWT sleep onset latency, Phase 2 NT2 trial (Example 2); conditions: not statistically significant (p>0.4)
Experimental: as §1, §2
Randomization was stratified by region. Starting on the morning of Day 1, the study drug was administered at approximately the same time each day for 8 weeks. […]

Structure (SMILES): CCS(=O)(=O)N[C@@H]1[C@H](Cc2cccc(-c3cc(F)cc(F)c3)c2F)N(C(=O)C(C)(C)O)CC1(F)F [Compound A, N-{(2S,3R)-4,4-difluoro-1-(2-hydroxy-2-methylpropanoyl)-2-[(2,3′,5′-trifluoro[1,1′-biphenyl]-3-yl)methyl]pyrrolidin-3-yl}ethanesulfonamide]
- SF-36 summary scores, change from baseline versus placebo (participants with NT1 [1]; all Compound A doses (FIG. 22)): Statistically significant improvements
- EQ-5D (index score and VAS), change from baseline versus placebo (participants with NT1 [1]; all Compound A doses (FIG. 23)): Statistically significant improvements
- LS mean (SE) change from baseline to Week 8 in SOL-MWT (participants with NT1 [2]; 0.5 mg/0.5 mg): 12.49 (2.13) minutes
- LS mean (SE) change from baseline to Week 8 in SOL-MWT (participants with NT1 [2]; 2 mg/2 mg): 23.50 (2.04) minutes
- LS mean (SE) change from baseline to Week 8 in SOL-MWT (participants with NT1 [2]; 2 mg/5 mg): 25.42 (2.07) minutes
- LS mean (SE) change from baseline to Week 8 in SOL-MWT (participants with NT1 [2]; 7 mg): 14.96 (1.95) minutes
- Estimated mean change from baseline to Week 8 in SOL-MWT versus placebo (participants with NT2; 2 mg/2 mg): -0.24 min
- Estimated mean change from baseline to Week 8 in SOL-MWT versus placebo (participants with NT2; 2 mg/5 mg): 2.4 min
